Assays:
[1] = design: method as in Schuppan et al. [2021]; conditions: patients with celiac disease; ref Schuppan et al. [2021]; cited from earlier work
Liver microsome assay = format: in vitro ADME, murine; conditions: 40 µM, after 60 min
Method: Microsome experiments with [^18F]7b in the presence of NADPH were performed according to the procedure recently described by us with slight modifications (Lemm et al. [2022]). […] [^18F]7b dissolved in 0.5% ethanol/PBS (100 µL; 0.2% ethanol final, e.g. 108 MBq/mL or 4.1 µM final) was mixed with PBS (112.5 µL) and murine liver microsomes (MLM, 12.5 µL of 20 mg/mL stock; 1 mg/mL final; Gibco™ Cat. No. MSMCPL, Lot. No. MS053-A) in a 1.5 mL Eppendorf tube and the mixture was warmed for 5 min at 37 °C. Subsequently, NADPH (25 µL of freshly prepared 20 mM solution in PBS, 2 mM final) was added and the mixture was incubated at 37 °C. As a control incubation, the NADPH solution was replaced by PBS. At distinct time points (5, 10, 15, 30, and 60 min), an aliquot (40 µL) was withdrawn and added to ice-cold CH3CN (160 µL). The mixture was vortexed for 30 s, stored on ice for 4 min and centrifuged (5 min at 16,100 × g). The resulting supernatant was used for radio-HPLC and radio-TLC analyses. For radio-HPLC, the Shimadzu Nexera X2 UHPLC system described above including the conditions for analysis was used. Radio-TLC was carried out on reversed-phase TLC plates (ALUGRAM RP-18W/UV254 from Macherey–Nagel, Düren, Germany) with a mobile phase of 40% CH3CN in water containing 0.1% trifluoroacetic acid. Visualization of radioactive spots and subsequent analysis was conducted as described above.
Testosterone (40 µM final) was used as positive control for the activity of the MLM and was separately treated and analyzed after incubation times of 5, 10, 15, 30, and 60 min as described above (0% ethanol final; HPLC gradient profile: 45% eluent B for 10 min followed by washing of the column with 45% to 95% eluent B in 1 min, 95% eluent B for 5 min, 95% to 45% eluent B in 1 min, 45% eluent B for 8 min; total time of 25 min).
For that, solutions of [^18F]7b in 0.5% ethanol/PBS (10 µL; 0.1% ethanol final, 17 MBq/mL or 1.14 µM final) were mixed with the respective tenfold concentrated solutions of 7b dissolved in 10% DMSO/PBS (5 µL, 1% DMSO final and 5/10/20/40/80 µM of 7b final), PBS (27.5 µL) and murine liver microsomes (2.5 µL of 20 mg/mL stock) in a 1.5 mL Eppendorf tube and the mixture was warmed for 5 min at 37 °C. Subsequently, NADPH (5 µL of freshly prepared 20 mM solution in PBS, 2 mM final) was added and the mixture was incubated at 37 °C. At distinct time points (5, 10, 15, 20, and 30 min), an aliquot (5 µL) was withdrawn and added to ice-cold CH3CN (40 µL). The subsequent steps were performed as described above including analysis by radio-TLC.
For the t1/2 approach at n.c.a. level, the obtained fractions of intact [^18F]7b (by radio-HPLC or radio-TLC analysis) were plotted against the time. Nonlinear regression was performed by one-phase decay (equation 1) as implemented in GraphPad Prism (GraphPad Prism 9.5.1.733), which provided the t1/2 values. The fraction at X = 0 min, Y0, was constrained to 1.0.1 Y0=Y0-Plateau×e^-k×X+Plateau
Subsequently, the intrinsic clearance, CLint (mL*min^−1*kg^−1), was calculated using equation 2 (Obach et al. [1997]; Schneider et al. [2019])2 CLint=ln2/t1/2min×fuinc×1/MLM(mg/mL)×microsomalprotein/liverweightmg/g×liverweight/bodyweightg/kg with the scaling factors of 60.1 mg/g (microsomal protein/liver weight for rats as no value for mice could be found) (Carlile et al. [1997]) and 87.5 g/kg (liver weight/body weight for mice) (Davies and Morris [1993]). The concentration of the MLMs was 1 mg/mL.
For the Vmax/Km approach, the obtained fractions of intact [^18F]7b (by radio-TLC analysis) were plotted against the time (fraction plot). The concentration plot was obtained by transformation of the fractions into concentrations of 7b by taking the experimentally determined molar activity of [^18F]7b into account (i.e. final concentration of 1.14, 6.16, 11.14, 21.14, 41.14, and 81.14 µM for 7b in the performed experiments). Both plots were analyzed by nonlinear regression according to one-phase decay (equation 1). […]

Structure (SMILES) | effect on duodenal mucosa [1] | tolerability [1] | consumption of positive control by MLM (Liver microsome assay)
CCC(CC)CNC(=O)Cn1cccc(NC(=O)[C@H](CC/C=C/C(=O)OC)NC(=O)c2cncn2C)c1=O [ZED1227] | attenuated damage of the duodenal mucosa | well-tolerated | 
C[C@]12CC[C@H]3[C@@H](CCC4=CC(=O)CC[C@@]43C)[C@@H]1CC[C@@H]2O [Testosterone, reference compound] |  |  | completely consumed
